In brackets after ≈: the same amount, converted by molar mass. One block for each molecule: values may come before it.
What was measured:
Experiment in all cases: ≥ marks a high value that may be exact or a test limit, other limits are often not marked, values filed in µg/mL are converted to µM
[1] = test system: Staphylococcus epidermidis 1457
[2] = test system: Staphylococcus aureus Newman
[3] = test system: Candida albicans ATCC 10231
[4] = test system: Klebsiella pneumoniae ATCC 13883
[5] = test system: Candida glabrata ATCC 2001
[6] = test system: Staphylococcus aureus MU50
[7] = test system: Pseudomonas aeruginosa PAO1
[8] = test system: Staphylococcus aureus USA 400
[9] = test system: Staphylococcus aureus USA 200
[10] = test system: Escherichia coli ATCC 25922
[11] = test system: Candida tropicalis ATCC 13803
[12] = test system: Staphylococcus aureus USA 300
[13] = test system: Staphylococcus aureus UAMS-1
Bacillus subtilis 168 = test system: Bacillus subtilis 168
[14] = test system: Escherichia coli JW2778 ΔygdD
[15] = test system: Escherichia coli JW0368 ΔsbmA
Escherichia coli JJ2489 = test system: Escherichia coli JJ2489
[16] = test system: Salmonella enterica subsp. enterica serovar Enteritidis MH91989
Escherichia coli J2210 = test system: Escherichia coli J2210
[17] = test system: Salmonella typhimurium SL1344
Escherichia coli MC1041 = test system: Escherichia coli MC1041
Escherichia coli BW25113 = test system: Escherichia coli BW25113
Escherichia coli JW0013 = test system: Escherichia coli JW0013
[18] = test system: Staphylococcus aureus CMCC 26003
[19] = test system: Pseudomonas aeruginosa ATCC 27853
[20] = test system: Staphylococcus epidermidis ATCC 12228
[21] = test system: Escherichia coli CMCC 44102
Vibrio cholerae = test system: Vibrio cholerae
[22] = test system: Staphylococcus aureus ATCC 43300
[23] = test system: Staphylococcus aureus MTCC 9542
[24] = test system: Enterococcus faecalis ATCC 29212
Escherichia coli MG1655 = test system: Escherichia coli MG1655
[25] = test system: Bacillus subtilis MTCC 14416
[26] = test system: Micrococcus luteus ATCC 10240
[27] = test system: Salmonella typhimurium KCTC 2370
[28] = test system: Staphylococcus aureus ATCC 15752
[29] = test system: Escherichia coli KCTC 2223
[30] = test system: Salmonella enterica subsp. enterica serovar Typhimurium ATCC 14028
Escherichia coli UB1005 = test system: Escherichia coli UB1005
[31] = test system: Salmonella enterica subsp. enterica serovar Typhimurium C77-31
[32] = test system: Salmonella enterica subsp. enterica serovar Typhi CMCC 50071
[33] = test system: Staphylococcus aureus CMCC 26074
[34] = test system: Listeria monocytogenes CMCC 54004
[35] = test system: Salmonella enterica subsp. enterica CMCC 47020
[36] = test system: Staphylococcus aureus ATCC 25923
[37] = test system: Salmonella enterica subsp. enterica serovar Pullorum C79-13
[38] = test system: Cronobacter sakazakii ATCC 29544
[39] = test system: Bacillus cereus CMCC 6303

SMILES: CC[C@H](C)[C@H](NC(=O)CNC(=O)[C@H](CO)NC(=O)[C@@H](NC(=O)[C@H](CC(C)C)NC(=O)[C@H](CCCN=C(N)N)NC(=O)CNC(=O)[C@@H](NC(=O)[C@@H](NC(=O)[C@@H]1CCCN1C(=O)[C@H](CC(C)C)NC(=O)[C@@H](N)Cc1ccccc1)[C@@H](C)CC)C(C)C)[C@@H](C)CC)C(=O)N[C@@H](CC(C)C)C(N)=O [FLPIVGRLISGIL]
MIC [1]: 12.5 µM (≈ 17.5 µg/mL)
MIC [2]: 12.5 µM (≈ 17.5 µg/mL)
MIC [3]: 50 µM (≈ 69.8 µg/mL)
MIC [4]: ≥ 50 µM
MIC [5]: ≥ 50 µM
MIC [6]: 12.5 µM (≈ 17.5 µg/mL)
MIC [7]: > 50 µM
MIC [8]: 12.5 µM (≈ 17.5 µg/mL)
MIC [9]: 25 µM (≈ 34.9 µg/mL)
MIC [10]: > 50 µM
MIC [11]: 8.8 µM (≈ 12.3 µg/mL)
MIC [12]: 12.5 µM (≈ 17.5 µg/mL)
MIC [13]: 25 µM (≈ 34.9 µg/mL)
MIC (Bacillus subtilis 168): ≥ 35.4 µM

SMILES: CC[C@H](C)[C@H](NC(=O)[C@H](Cc1ccc(O)cc1)NC(=O)[C@@H](NC(=O)[C@@H]1CCCN1C(=O)[C@H](CCCCN)NC(=O)[C@H](CC(N)=O)NC(=O)[C@H](CC(N)=O)NC(=O)CN)C(C)C)C(=O)N1CCC[C@H]1C(=O)N[C@@H](CCC(N)=O)C(=O)N1CCC[C@H]1C(=O)N[C@@H](CCCN=C(N)N)C(=O)N1CCC[C@H]1C(=O)N1CCC[C@H]1C(=O)N[C@@H](CCCN=C(N)N)C(=O)N1CCC[C@H]1C(=O)N[C@@H](CCCN=C(N)N)C(=O)N[C@@H](CC(C)C)C(=O)O [GNNKPVYIPQPRPPRPRL]
MIC [14]: 0.096 µM (≈ 0.202 µg/mL)
MIC [15]: 0.384 µM (≈ 0.806 µg/mL)
MIC (Escherichia coli JJ2489): 0.067 µM (≈ 0.141 µg/mL)
MIC [16]: 0.067 µM (≈ 0.141 µg/mL)
MIC (Escherichia coli J2210): 0.133 µM (≈ 0.279 µg/mL)
MIC [17]: 0.126 µM (≈ 0.265 µg/mL)
MIC (Escherichia coli MC1041): 0.096 µM (≈ 0.202 µg/mL)
MIC (Escherichia coli BW25113): 0.048 µM (≈ 0.101 µg/mL)
MIC (Escherichia coli JW0013): 0.048 µM (≈ 0.101 µg/mL)

SMILES: CC[C@H](C)[C@H](NC(=O)[C@H](CCCN=C(N)N)NC(=O)[C@H](CCCN=C(N)N)NC(=O)[C@H](CC(C)C)NC(=O)[C@H](Cc1ccccc1)NC(=O)[C@@H]1CCCN1C(=O)[C@H](CCCN=C(N)N)NC(=O)[C@H](CCSC)NC(=O)[C@@H](NC(=O)[C@H](CCCCN)NC(=O)[C@H](CCCCN)NC(=O)[C@H](CS)NC(=O)[C@@H](NC(=O)CNC(=O)[C@H](CCCN=C(N)N)NC(=O)[C@H](CC(C)C)NC(=O)[C@@H](NC(=O)[C@@H](N)CCCCN)[C@@H](C)CC)C(C)C)[C@@H](C)CC)C(=O)N[C@@H](CO)C(=O)N[C@@H](CCCCN)C(=O)N[C@@H](CC(=O)O)C(=O)N[C@H](C(=O)N[C@@H](CC(C)C)C(=O)N[C@H](C(=O)NCC(=O)N[C@@H](CCCCN)C(=O)N[C@@H](CCCCN)C(N)=O)[C@@H](C)O)[C@@H](C)CC [KILRGVCKKIMRPFLRRISKDILTGKK]
MIC [18]: 4 µM (≈ 12.8 µg/mL)
MIC [19]: 16 µM (≈ 51.2 µg/mL)
MIC [20]: 4 µM (≈ 12.8 µg/mL)
MIC [21]: 4 µM (≈ 12.8 µg/mL)

The next lines start with results.

MIC [22]: 26.3 µM (≈ 49.9 µg/mL)
MIC [19]: > 52.6 µM
MIC [23]: 3.23 µM (≈ 6.14 µg/mL)
MIC [24]: 52.6 µM (≈ 99.8 µg/mL)
MIC (Escherichia coli MG1655): 6.57 µM (≈ 12.5 µg/mL)
MIC [25]: 26.3 µM (≈ 49.9 µg/mL)
SMILES: CC[C@H](C)[C@@H]1NC(=O)[C@H](CCCCN)NC(=O)[C@@H](NC(=O)[C@H](CC(C)C)NC(=O)[C@@H](NC(=O)[C@H](CCC(N)=O)NC(=O)[C@@H]2CCCN2C(=O)[C@H](CC(C)C)NC(=O)[C@H](Cc2ccccc2)NC(=O)[C@H](CC(N)=O)NC(=O)[C@H](C)NC(=O)[C@H](C)NC(=O)[C@@H](N)CC(C)C)[C@@H](C)CC)CSSC[C@@H](C(N)=O)NC(=O)[C@H](CCCCN)NC(=O)[C@H](CCCN=C(N)N)NC(=O)[C@H](C)NC1=O [LAANFLPQILCKIARKC]
MIC (Vibrio cholerae): 6.57 µM (≈ 12.5 µg/mL)

MIC [26]: 0.5 µM (≈ 1.43 µg/mL)
MIC [27]: 4 µM (≈ 11.4 µg/mL)
MIC [28]: 2 µM (≈ 5.7 µg/mL)
MIC [29]: 2 µM (≈ 5.7 µg/mL)
SMILES: CC(C)C[C@H](NC(=O)[C@H](CCCCN)NC(=O)[C@H](CCC(N)=O)NC(=O)[C@H](CCCCN)NC(=O)[C@H](CC(C)C)NC(=O)[C@H](CC(C)C)NC(=O)[C@H](CCC(N)=O)NC(=O)[C@H](CC(C)C)NC(=O)[C@H](CC(C)C)NC(=O)[C@@H]1CCCN1C(=O)[C@H](CCCN=C(N)N)NC(=O)[C@H](CC(C)C)NC(=O)[C@H](CC(C)C)NC(=O)[C@H](CCCN=C(N)N)NC(=O)CNC(=O)CNC(=O)CNC(=O)[C@@H]1CCCN1C(=O)[C@@H]1CCCN1C(=O)CNC(=O)[C@H](CCCN=C(N)N)NC(=O)[C@@H](NC(=O)[C@H](CCCCN)NC(=O)[C@@H](N)CCCN=C(N)N)C(C)C)C(=O)N[C@@H](CCCN=C(N)N)C(=O)O [RKVRGPPGGGRLLRPLLQLLKQKLR]

MIC [30]: 32 µM (≈ 52.4 µg/mL)
MIC (Escherichia coli UB1005): 8 µM (≈ 13.1 µg/mL)
MIC [31]: ≥ 32 µM
MIC [32]: 8 µM (≈ 13.1 µg/mL)
MIC [33]: ≥ 256 µM
MIC [34]: 2 µM (≈ 3.27 µg/mL)
MIC [35]: ≥ 64 µM
MIC [36]: 128 µM (≈ 209 µg/mL)
MIC [37]: 8 µM (≈ 13.1 µg/mL)
MIC [38]: ≥ 32 µM
MIC [39]: 16 µM (≈ 26.2 µg/mL)
SMILES: CC[C@H](C)[C@H](NC(=O)[C@H](CCCN=C(N)N)NC(=O)[C@H](Cc1c[nH]c2ccccc12)NC(=O)[C@H](CCCCN)NC(=O)[C@@H](N)CCCN=C(N)N)C(=O)N[C@H](C(=O)N[C@H](C(=O)N[C@H](C(=O)N[C@@H](CCCN=C(N)N)C(=O)N[C@H](C(=O)N[C@@H](CCCN=C(N)N)C(=O)N[C@@H](CCCN=C(N)N)C(N)=O)C(C)C)[C@@H](C)CC)C(C)C)C(C)C [RKWRIVVIRVRR]
